From US9676754B2, “Triazolone compounds and uses thereof” (Inception 2, Inc., priority 2012, dated 2017)

Biological target: T1, Human PPARα (Homo sapiens, UniProt Q07869)
T1 construct: host or cells: proprietary non-human mammalian cells
T1 sequence (Q07869 1-468): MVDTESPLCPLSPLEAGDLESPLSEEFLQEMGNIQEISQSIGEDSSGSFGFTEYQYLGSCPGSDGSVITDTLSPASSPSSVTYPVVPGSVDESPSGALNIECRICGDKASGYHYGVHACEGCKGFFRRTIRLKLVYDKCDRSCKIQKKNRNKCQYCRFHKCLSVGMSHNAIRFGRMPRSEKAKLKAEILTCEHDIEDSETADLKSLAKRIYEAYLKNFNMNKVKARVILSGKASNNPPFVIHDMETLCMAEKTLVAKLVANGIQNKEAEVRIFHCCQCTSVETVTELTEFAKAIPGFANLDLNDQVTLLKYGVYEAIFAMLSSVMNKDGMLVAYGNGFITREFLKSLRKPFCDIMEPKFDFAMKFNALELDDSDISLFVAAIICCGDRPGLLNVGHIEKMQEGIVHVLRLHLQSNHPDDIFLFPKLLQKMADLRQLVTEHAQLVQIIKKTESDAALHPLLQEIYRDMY
Assay: Human PPARα Reporter Assay (luciferase)
Format: cell-based
Conditions: antagonist activity, luciferase reporter cells, overnight incubation; read-out: Human PPARα Reporter Assay-Luciferase IC50
Experimental: Human PPARα Reporter Assay
The screening of test compounds for agonist or antagonist activities against human PPARα receptors was performed using a commercial kit, Human PPARα Reporter Assay System (Indigo Biosciences, Cat. #IB00111).
This nuclear receptor assay system utilizes proprietary non-human mammalian cells engineered to provide constitutive, high-level expression of Human PPARα. Because these cells incorporate a PPARα-responsive luciferase reporter gene, quantifying expressed luciferase activity provides a sensitive surrogate measure of PPARα activity in the treated cells. The primary application of this reporter assay system is in the screening of test samples to quantify any functional activity, either agonist or antagonist, that they may exert against human PPARα. […] Briefly, the reporter cells are dispensed into wells of the assay plate and then immediately dosed with test compounds. Following an overnight incubation, the treatment media are discarded and Luciferase Detection Reagent (LDR) is added. The intensity of light emission from the ensuing luciferase reaction provides a sensitive measure that is directly proportional to the relative level of PPARα activation in the reporter cells.

| IC50 [nM] | Compound |
| --- | --- |
| 1240 | CCOc1ccc(-c2nccc(CCCc3nn(Cc4ccc(C(C)(C)C)cc4)c(=O)n3CC)n2)cc1CC(=O)O [Example 26, 2-(5-(4-(3-(1-(4-(tert-Butyl)benzyl)-4-ethyl-5-oxo-4,5-dihydro-1H-1,2,4-triazol-3-yl)propyl)pyrimidin-2-yl)-2-ethoxyphenyl)acetic acid] |
| 59 | CCOc1cc(-c2cccc(CCCc3nn(Cc4ccc(C(C)(C)C)cc4)c(=O)n3CC)c2)ccc1CC(=O)O [Example 29, (3′-(3-(1-(4-(tert-Butyl)benzyl)-4-ethyl-5-oxo-4,5-dihydro-1H-1,2,4-triazol-3-yl)propyl)-3-ethoxy-[1,1′-biphenyl]-4-yl)acetic acid] |
| 48 | CCCOc1ccc(-c2cccc(CCCc3nn(Cc4ccc(C(C)(C)C)cc4)c(=O)n3CC)c2)cc1CC(=O)O [Example 11, 2-(3′-(3-(1-(4-(tert-Butyl)benzyl)-4-ethyl-5-oxo-4,5-dihydro-1H-1,2,4-triazol-3-yl)propyl)-4-propoxy-[1,1′-biphenyl]-3-yl)acetic acid] |
| 137 | CCOc1ccc(-c2cccc(CCCc3nn(Cc4ccc(C(C)(C)C)cc4)c(=O)n3CC)c2)cc1C1(C(=O)O)CC1 [Example 5, 1-(3′-(3-(1-(4-(tert-Butyl)benzyl)-4-ethyl-5-oxo-4,5-dihydro-1H-1,2,4-triazol-3-yl)propyl)-4-ethoxy-[1,1′-biphenyl]-3-yl)cyclopropanecarboxylic acid] |
| 896 | CCn1c(CCCc2cccc(-c3cccc(CNS(=O)(=O)c4ccccc4)c3)c2)nn(Cc2ccc(C(C)(C)C)cc2)c1=O [Example 20, N-((3′-(3-(1-(4-(tert-Butyl)benzyl)-4-ethyl-5-oxo-4,5-dihydro-1H-1,2,4-triazol-3-yl)propyl)-[1,1′-biphenyl]-3-yl)methyl)benzenesulfonamide] |
| 141 | CCn1c(CCCc2cccc(-c3ccc(OCC4CC4)c(CC(=O)O)c3)c2)nn(Cc2ccc(C(C)(C)C)cc2)c1=O [Example 16, 2-(3′-(3-(1-(4-(tert-Butyl)benzyl)-4-ethyl-5-oxo-4,5-dihydro-1H-1,2,4-triazol-3-yl)propyl)-4-(cyclopropylmethoxy)-[1,1′-biphenyl]-3-yl)acetic acid] |
| 36 | CCCOc1cc(-c2cccc(CCCc3nn(Cc4ccc(C(C)(C)C)cc4)c(=O)n3CC)c2)ccc1CC(=O)O [Example 30, (3′-(3-(1-(4-(tert-Butyl)benzyl)-4-ethyl-5-oxo-4,5-dihydro-1H-1,2,4-triazol-3-yl)propyl)-3-propoxy-[1,1′-biphenyl]-4-yl)acetic acid] |
| 77 | CCn1c(CCCc2cccc(-c3cccc(C4(C(=O)O)CC4)c3)c2)nn(Cc2ccc(C(C)(C)C)cc2)c1=O [Example 7, 1-(3′-(3-(1-(4-(tert-Butyl)benzyl)-4-ethyl-5-oxo-4,5-dihydro-1H-1,2,4-triazol-3-yl)propyl)-[1,1′-biphenyl]-3-yl)cyclopropanecarboxylic acid] |
| 234 | CCn1c(CCCc2cccc(-c3ccc(C)c(C4(C(=O)O)CC4)c3)c2)nn(Cc2ccc(C(C)(C)C)cc2)c1=O [Example 14, 1-(3′-(3-(1-(4-(tert-Butyl)benzyl)-4-ethyl-5-oxo-4,5-dihydro-1H-1,2,4-triazol-3-yl)propyl)-4-methyl-[1,1′-biphenyl]-3-yl)cyclopropanecarboxylic acid] |
| 140 | CCn1c(CCCc2cccc(-c3ccc(CC(=O)O)c(OC)c3)c2)nn(Cc2ccc(C(C)(C)C)cc2)c1=O [Example 28, (3′-(3-(1-(4-(tert-Butyl)benzyl)-4-ethyl-5-oxo-4,5-dihydro-1H-1,2,4-triazol-3-yl)propyl)-3-methoxy-[1,1′-biphenyl]-4-yl)acetic acid] |
| 548 | CCn1c(CCCc2cccc(-c3ccc(OC)c(C(=O)O)c3)c2)nn(Cc2ccc(C(C)(C)C)cc2)c1=O [Example 9, 3′-(3-(1-(4-(tert-Butyl)benzyl)-4-ethyl-5-oxo-4,5-dihydro-1H-1,2,4-triazol-3-yl)propyl)-4-methoxy-[1,1′-biphenyl]-3-carboxylic acid] |
| 324 | CCn1c(CCCc2cccc(-c3ccc(CC(=O)O)cc3)c2)nn(Cc2ccc(C(C)(C)C)cc2)c1=O [Example 2, 2-(3′-(3-(1-(4-(tert-Butyl)benzyl)-4-ethyl-5-oxo-4,5-dihydro-1H-1,2,4-triazol-3-yl)propyl)-[1,1′-biphenyl]-4-yl)acetic acid] |
| 3430 | CCOc1ccc(-c2cc(CCCc3nn(Cc4ccc(C(C)(C)C)cc4)c(=O)n3CC)ncn2)cc1CC(=O)O [Example 27, 2-(5-(6-(3-(1-(4-(tert-Butyl)benzyl)-4-ethyl-5-oxo-4,5-dihydro-1H-1,2,4-triazol-3-yl)propyl)pyrimidin-4-yl)-2-ethoxyphenyl)acetic acid] |
| 119 | CCCOc1ccc(-c2cccc(CCCc3nn(Cc4ccc(C(C)(C)C)cc4)c(=O)n3CC)c2)cc1C(=O)O [Example 19, 3′-(3-(1-(4-(tert-Butyl)benzyl)-4-ethyl-5-oxo-4,5-dihydro-1H-1,2,4-triazol-3-yl)propyl)-4-propoxy-[1,1′-biphenyl]-3-carboxylic acid] |
| 346 | CCn1c(CCCc2cccc(-c3cccc(CC(=O)O)c3)c2)nn(Cc2ccc(C(C)(C)C)cc2)c1=O [Example 1, 2-(3′-(3-(1-(4-(tert-Butyl)benzyl)-4-ethyl-5-oxo-4,5-dihydro-1H-1,2,4-triazol-3-yl)propyl)-[1,1′-biphenyl]-3-yl)acetic acid] |
| 302 | CCn1c(CCCc2cccc(-c3ccc(NS(=O)(=O)c4ccccc4)cn3)c2)nn(Cc2ccc(C(C)(C)C)cc2)c1=O [Example 12, N-(6-(3-(3-(1-(4-(tert-Butyl)benzyl)-4-ethyl-5-oxo-4,5-dihydro-1H-1,2,4-triazol-3-yl)propyl)phenyl)pyridin-3-yl)benzenesulfonamide] |
| 83 | CCn1c(CCCc2cccc(-c3ccc(F)c(CC(=O)O)c3)c2)nn(Cc2ccc(C(C)(C)C)cc2)c1=O [Example 17, 2-(3′-(3-(1-(4-(tert-Butyl)benzyl)-4-ethyl-5-oxo-4,5-dihydro-1H-1,2,4-triazol-3-yl)propyl)-4-fluoro-[1,1′-biphenyl]-3-yl)acetic acid] |
| 2530 | CCn1c(CCCc2cccc(-c3ccc(OC)c(CC(=O)O)c3)n2)nn(Cc2ccc(C(C)(C)C)cc2)c1=O [Example 24, 2-(5-(6-(3-(1-(4-(tert-Butyl)benzyl)-4-ethyl-5-oxo-4,5-dihydro-1H-1,2,4-triazol-3-yl)propyl)pyridin-2-yl)-2-methoxyphenyl)acetic acid] |
| 197 | CCn1c(CCCc2cccc(-c3ccc(OC)c(CC(=O)O)c3)c2)nn(Cc2ccc(C(C)(C)C)cc2)c1=O [Example 13, 2-(3′-(3-(1-(4-(tert-Butyl)benzyl)-4-ethyl-5-oxo-4,5-dihydro-1H-1,2,4-triazol-3-yl)propyl)-4-methoxy-[1,1′-biphenyl]-3-yl)acetic acid] |
| 122 | CCn1c(CCCc2cccc(-c3ccc(OCc4ccccc4)c(CC(=O)O)c3)c2)nn(Cc2ccc(C(C)(C)C)cc2)c1=O [Example 15, 2-(4-(Benzyloxy)-3′-(3-(1-(4-(tert-butyl)benzyl)-4-ethyl-5-oxo-4,5-dihydro-1H-1,2,4-triazol-3-yl)propyl)-[1,1′-biphenyl]-3-yl)acetic acid] |
| 750 | CCOc1ccc(CC(=O)O)cc1-c1cccc(CCCc2nn(Cc3ccc(C(C)(C)C)cc3)c(=O)n2CC)c1 [Example 18, 2-(3′-(3-(1-(4-(tert-Butyl)benzyl)-4-ethyl-5-oxo-4,5-dihydro-1H-1,2,4-triazol-3-yl)propyl)-6-ethoxy-[1,1′-biphenyl]-3-yl)acetic acid] |
| 2290 | CCn1c(CCCc2cccc(-c3cccc(-c4nnn[nH]4)c3)c2)nn(Cc2ccc(C(C)(C)C)cc2)c1=O [Example 25, 3-(3-(3′-(1H-Tetrazol-5-yl)-[1,1′-biphenyl]-3-yl)propyl)-1-(4-(tert-butyl)benzyl)-4-ethyl-1H-1,2,4-triazol-5(4H)-one] |
| 610 | CCn1c(CCCc2cccc(-c3ccc(OC)c(CCC(=O)O)c3)c2)nn(Cc2ccc(C(C)(C)C)cc2)c1=O [Example 21, 3-(3′-(3-(1-(4-(tert-Butyl)benzyl)-4-ethyl-5-oxo-4,5-dihydro-1H-1,2,4-triazol-3-yl)propyl)-4-methoxy-[1,1′-biphenyl]-3-yl)propanoic acid] |
| 487 | CCn1c(CCCc2cccc(-c3ccc(C4(C(=O)O)CC4)cc3)c2)nn(Cc2ccc(C(C)(C)C)cc2)c1=O [Example 8, 1-(3′-(3-(1-(4-(tert-Butyl)benzyl)-4-ethyl-5-oxo-4,5-dihydro-1H-1,2,4-triazol-3-yl)propyl)-[1,1′-biphenyl]-4-yl)cyclopropanecarboxylic acid] |
| 211 | CCOc1ccc(-c2cccc(CCCc3nn(Cc4ccc(C(C)(C)C)cc4)c(=O)n3CC)c2)cc1C(=O)O [Example 10, 3′-(3-(1-(4-(tert-Butyl)benzyl)-4-ethyl-5-oxo-4,5-dihydro-1H-1,2,4-triazol-3-yl)propyl)-4-ethoxy-[1,1′-biphenyl]-3-carboxylic acid] |
